Results taken from patent US12378243B2, “Quinoline compounds as inhibitors of KRAS” (Incyte Corporation, priority 2021, dated 2025).

Tests used:
[1] = target: KRAS G12V mutant (Homo sapiens, UniProt P01116, G12V); experiment: GDP-GTP exchange assay, KRAS G12V; format: biochemical; conditions: bodipy loaded KRAS G12V 2.5 nM; 3 hours incubation after adding GppNHp-SOS1 mixture; read-out: G12V_exchange
[2] = tested on: Caco-2 cells; experiment: Caco2 assay (permeability, A-B); format: in vitro ADME; conditions: Papp absorptive direction (A-B), test compound 50 μM, 120 minutes at 37° C.
Method in brief: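 Caco-2 monolayers grown 22-25 days on Transwells, used only at TEER ≥300 Ω·cm^2. Compound at 50 μM in HBSS added apically, receiver HBSS with 4% BSA; 120 min at 37 °C. LCMS quantification; Papp from receiver flux slope, membrane area and initial donor amount.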

[3] = target: KRAS G12D (Homo sapiens, UniProt P01116, G12D); experiment: GDP-GTP exchange assay, KRAS G12D; format: biochemical; conditions: bodipy-loaded KRAS G12D 2.5 nM, GppNHp 500 uM, SOS1 150 nM; 4 hours pre-incubation, 2 hours incubation; read-out: G12D_exchange
Method in brief: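 Nucleotide exchange started with 1 mM GppNHp and 300 nM SOS1, then 2 h at ambient temperature. IC50 from four-parameter logistic fit with variable Hill slope.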

KRAS G12V mutant, sequence (P01116 1-188 isoform P01116-2 G12V): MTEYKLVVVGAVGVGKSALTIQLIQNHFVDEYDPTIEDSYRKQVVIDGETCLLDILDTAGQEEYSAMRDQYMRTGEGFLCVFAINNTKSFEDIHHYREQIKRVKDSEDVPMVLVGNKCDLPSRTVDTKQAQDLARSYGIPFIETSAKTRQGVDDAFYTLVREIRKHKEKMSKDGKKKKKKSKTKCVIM
KRAS G12D, sequence (P01116 1-188 isoform P01116-2 G12D): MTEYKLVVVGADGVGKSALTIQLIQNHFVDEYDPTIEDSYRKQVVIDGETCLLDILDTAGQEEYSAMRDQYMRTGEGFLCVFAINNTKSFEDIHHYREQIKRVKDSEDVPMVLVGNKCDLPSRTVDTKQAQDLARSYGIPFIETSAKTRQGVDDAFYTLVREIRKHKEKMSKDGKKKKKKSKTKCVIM

Structure (SMILES): COC(=O)N1CCC[C@@H]1c1c(Cl)c2c(-c3ccc(C(C)(C)O)nc3)nc3c(F)c(-c4cccc(Cl)c4Cl)c(CCC#N)cc3c2n1[C@H]1[C@H]2CN[C@@H]1C2 [Example 53, Methyl (2R)-2-(1-((1R,4R,5S)-2-azabicyclo[2.1.1]hexan-5-yl)-3-chloro-8-(2-cyanoethyl)-7-(2,3-dichlorophenyl)-6-fluoro-4-(6-(2-hydroxypropan-2-yl)pyridin-3-yl)-1H-pyrrolo[3,2-c]quinolin-2-yl)pyrrolidine-1-carboxylate]
- IC50 [1]: < 0.1 µM
- Caco-2 ([2]; Table 4): +++ (a Caco-2 value of >1)
- IC50 [3]: < 0.1 µM

Structure (SMILES): Cc1cc2c(O[C@@H](C)[C@@H]3CCCN3C)nc3c(F)c(-c4c[nH]c5c(F)cc(F)cc45)c(CCC#N)cc3c2n1[C@H]1[C@H]2CN[C@@H]1C2 [Example 2, 3-(1-((1R,4R,5S)-2-Azabicyclo[2.1.1]hexan-5-yl)-7-(5,7-difluoro-1H-indol-3-yl)-6-fluoro-2-methyl-4-((S)-1-((S)-1-methylpyrrolidin-2-yl)ethoxy)-1H-pyrrolo[3,2-c]quinolin-8-yl)propanenitrile]
- IC50 [1]: < 0.1 µM
- Caco-2 ([2]; Table 3): + (a Caco-2 value of 50.5)
- IC50 [3]: < 0.1 µM

Structure (SMILES): C[C@@H](CN(C)C)Oc1nc2c(F)c(-c3cccc4ccc(F)cc34)c(CCC#N)cc2c2c1cc(CN1CCCC1=O)n2[C@H]1[C@H]2CN[C@@H]1C2 (single isomer, unassigned) [Example 10]
- IC50 [1]: < 0.1 µM
- Caco-2 ([2]; Table 3): + (a Caco-2 value of 50.5)
- IC50 [3]: < 0.1 µM

Structure (SMILES): Cc1nc2c(F)c(-c3cccc(Cl)c3Cl)c(CCC#N)cc2c2c1cc([C@@H](C)Nc1cnn(C)c1)n2[C@H]1[C@H]2CN[C@@H]1C2 [Example 71, 3-(1-((1R,4R,5S)-2-azabicyclo[2.1.1]hexan-5-yl)-7-(2,3-dichlorophenyl)-6-fluoro-4-methyl-2-((R)-1-((1-methyl-1H-pyrazol-4-yl)amino)ethyl)-1H-pyrrolo[3,2-c]quinolin-8-yl)propanenitrile]
- IC50 [1]: < 0.1 µM
- Caco-2 ([2]; Table 4): +++ (a Caco-2 value of >1)
- IC50 [3]: < 0.1 µM

Structure (SMILES): Cc1cnc(-c2nc3c(F)c(-c4cccc(Cl)c4C)c(CCC#N)cc3c3c2cc([C@@H](C)n2ccncc2=O)n3[C@H]2[C@H]3CN[C@@H]2C3)cn1 (single isomer, unassigned) [Example 38]
- IC50 [1]: < 0.1 µM
- Caco-2 ([2]; Table 4): +++ (a Caco-2 value of >1)
- IC50 [3]: < 0.1 µM

Structure (SMILES): CC(O)c1nc2c(F)c(-c3cccc(Cl)c3Cl)c(CCC#N)cc2c2c1cc([C@@H](C)NC(=O)C1(F)CC1)n2[C@H]1[C@H]2CN[C@@H]1C2 (stereo partly drawn) [Example 65, N-((1R)-1-(1-((1R,4R,5S)-2-Azabicyclo[2.1.1]hexan-5-yl)-8-(2-cyanoethyl)-7-(2,3-dichlorophenyl)-6-fluoro-4-(1-hydroxyethyl)-1H-pyrrolo[3,2-c]quinolin-2-yl)ethyl)-1-fluorocyclopropane-1-carboxamide]
- IC50 [1]: < 0.1 µM
- Caco-2 ([2]; Table 4): +++ (a Caco-2 value of >1)
- IC50 [3]: < 0.1 µM

Structure (SMILES): CC(O)c1nc2c(F)c(-c3cccc(Cl)c3Cl)c(CCC#N)cc2c2c1cc([C@H]1C[C@H]3C[C@H]3N1C(=O)C1(F)CC1)n2[C@H]1[C@H]2CN[C@@H]1C2 (stereo partly drawn) [Example 63, 3-(1-((1R,4R,5S)-2-Azabicyclo[2.1.1]hexan-5-yl)-7-(2,3-dichlorophenyl)-6-fluoro-2-((1R,3R,5R)-2-(1-fluorocyclopropane-1-carbonyl)-2-azabicyclo[3.1.0]hexan-3-yl)-4-(1-hydroxyethyl)-1H-pyrrolo[3,2-c]quinolin-8-yl)propanenitrile]
- IC50 [1]: < 0.1 µM
- Caco-2 ([2]; Table 4): +++ (a Caco-2 value of >1)
- IC50 [3]: < 0.1 µM

Structure (SMILES): CC(O)c1nc2c(F)c(-c3cccc(Cl)c3Cl)c(CCC#N)cc2c2c1cc([C@@H](C)NC(=O)C1(F)CCC1)n2[C@H]1[C@H]2CN[C@@H]1C2 (stereo partly drawn) [Example 66, N-((1R)-1-(1-((1R,4R,5S)-2-azabicyclo[2.1.1]hexan-5-yl)-8-(2-cyanoethyl)-7-(2,3-dichlorophenyl)-6-fluoro-4-(1-hydroxyethyl)-1H-pyrrolo[3,2-c]quinolin-2-yl)ethyl)-1-fluorocyclobutane-1-carboxamide]
- IC50 [1]: < 0.1 µM
- Caco-2 ([2]; Table 4): +++ (a Caco-2 value of >1)
- IC50 [3]: < 0.1 µM
